{"source": "paper PMC9381947", "about": "(Antiviral Research, 2022)", "key": {"[1]": {"biological_target": "T1, SARS-CoV-2 NSP13 helicase (Severe acute respiratory syndrome coronavirus 2, UniProt P0DTD1)", "assay": "biochemical", "conditions": "for inhibition at 20 µM: read-out: inhibitory activity against NSP13, confirmation screen; for NSP13 helicase inhibition relative to PUG: compared with PUG"}, "[2]": {"biological_target": "T1, SARS-CoV-2 NSP13 helicase", "assay": "Gel-based DNA unwinding assay", "type": "biochemical", "conditions": "PUG at concentrations over 1 μM"}, "[3]": {"biological_target": "SARS-CoV-2 NSP13 (Severe acute respiratory syndrome coronavirus 2, UniProt P0DTD1)", "assay": "Surface plasmon resonance", "type": "binding", "conditions": "SPR, NSP13 coupled to CM5 chip"}, "[4]": {"biological_target": "SARS-CoV-2 NSP13 ATPase activity (Severe acute respiratory syndrome coronavirus 2, UniProt P0DTD1)", "assay": "Luciferase-coupled ATP assay", "type": "biochemical"}, "[5]": {"tested_on": "human adenovirus (HAdV) type 7 (HAdV-7)", "assay": "Antiviral assay in A549 cells", "conditions": "48 h, qRT-PCR, listed as PUG"}, "[6]": {"biological_target": "NSP13/DNA complex (Severe acute respiratory syndrome coronavirus 2, UniProt P0DTD1)", "assay": "Electrophoretic mobility shift assay", "type": "biochemical, SARS-CoV-2", "conditions": "pre-incubation of NSP13 with compound, FAM-labeled 5ˊ flap DNA"}, "[7]": {"conditions": "read-out: IC50 against NSP13 helicase activity, Table 1"}, "[8]": {"conditions": "IC50 against NSP13 helicase activity, Table 1"}, "[9]": {"conditions": "IC50, DNA unwinding activity of NSP13, text and figures"}, "[10]": {"conditions": "read-out: IC50 against NSP13 helicase activity"}}, "note": "Entries after “also recorded” stand apart in the source; their conditions may differ. Where two headings read alike, the source gives them in different places."}
{"compound": "O=c1c(O)c(-c2cc(O)c(O)c(O)c2)oc2cc(O)cc(O)c12", "note": "[Myricetin, reference compound]", "values": [{"measurement": "inhibition at 20 µM", "setting": "[1]", "value": "> 70", "unit": "%"}]}
{"compound": "Tannic acid", "values": [{"measurement": "IC50", "setting": "[1]; [7]", "value": 1250, "unit": "nM"}]}
{"compound": "O=c1cc(-c2ccc(O)cc2)oc2cc(O)c(O)c(O)c12", "note": "[Scutellarein, reference compound]", "values": [{"measurement": "inhibition at 20 µM", "setting": "[1]", "value": "> 70", "unit": "%"}]}
{"compound": "O=C(N/N=C/c1cc(O)c(O)cc1O)c1cc2ccccc2cc1O", "note": "[Dyngo-4a, reference compound]", "values": [{"measurement": "IC50", "setting": "[1]; [7]", "value": 630, "unit": "nM"}]}
{"compound": "Oc1cc(O)c2c(c1)O[C@H](c1cc(O)c(O)c(O)c1)[C@H](O)[C@H]2c1c(O)cc(O)c2c1O[C@H](c1cc(O)c(O)c(O)c1)[C@H](O)[C@H]2c1c(O)cc(O)c2c1O[C@H](c1cc(O)c(O)c(O)c1)[C@H](O)C2", "note": "[Katacine]", "values": [{"measurement": "IC50", "setting": "[1]; [8]", "value": 5980, "unit": "nM"}]}
{"compound": "O=C1O[C@@H]2[C@@H](OC(=O)c3cc(O)c(O)c(O)c3-c3c1cc(O)c(O)c3O)[C@H](O)O[C@@H]1COC(=O)c3cc(O)c(O)c(O)c3-c3c(O)c(O)c4oc(=O)c5c(c(O)c(O)c6oc(=O)c3c4c65)-c3c(cc(O)c(O)c3O)C(=O)O[C@@H]21", "note": "[Punicalagin, 2,3-hexahydroxydiphenoyl-gallagyl-D-glucose]", "values": [{"measurement": "IC50", "setting": "[1]; [9]", "value": 427, "unit": "nM"}, {"measurement": "IC50", "setting": "[1]; [8]", "value": 430, "unit": "nM"}, {"measurement": "helicase activity of NSP13 in gel-based DNA unwinding assay", "setting": "[2]", "value": "nearly abolished"}, {"measurement": "Kd", "setting": "[3]", "value": 21.6, "unit": "nM"}, {"measurement": "Km of NSP13 ATPase", "setting": "[4]; with increasing concentrations of PUG", "value": "increased"}, {"measurement": "antiviral effect against HAdV-7", "setting": "[5]", "value": "did not show detectable antiviral effects"}]}
{"compound": "O=c1cc(-c2ccccc2)oc2cc(O)c(O)c(O)c12", "note": "[Baicalein, reference compound]", "values": [{"measurement": "inhibition at 20 µM", "setting": "[1]", "value": "> 70", "unit": "%"}]}
{"compound": "CC(C)[C@H](NC(=O)CCCCCN1C(=O)C=CC1=O)C(=O)N[C@@H](CCCNC(N)=O)C(=O)Nc1ccc(COC(=O)Oc2ccc([N+](=O)[O-])cc2)cc1", "note": "[MC-Val-Cit-PABC-PNP]", "values": [{"measurement": "IC50", "setting": "[1]; [10]", "value": 2450, "unit": "nM"}]}
{"compound": "O=C(O)CSc1cc(NS(=O)(=O)c2ccc(Br)cc2)c2ccccc2c1O", "note": "[UMI-77, reference compound]", "values": [{"measurement": "IC50", "setting": "[1]; [10]", "value": 4380, "unit": "nM"}]}
{"compound": "O=C([O-])c1cc(=O)[nH]c(=O)[nH]1.O=C([O-])c1cc(=O)[nH]c(=O)[nH]1.[Zn+2]", "note": "[Zinc Orotate]", "values": [{"measurement": "IC50", "setting": "[1]; [7]", "value": 4120, "unit": "nM"}]}
{"compound": "O=C1OC[C@H]2OC(O)[C@H](O)[C@@H](O)[C@@H]2OC(=O)c2cc(O)c(O)c(O)c2-c2c(O)c(O)c3oc(=O)c4c(c(O)c(O)c5oc(=O)c2c3c54)-c2c1cc(O)c(O)c2O", "note": "(mixture of isomers) [PUL, punicalin]", "values": [{"measurement": "IC50", "setting": "[1]; [9]", "value": "~540", "unit": "nM"}, {"measurement": "NSP13 helicase inhibition relative to PUG", "setting": "[1]", "value": "comparable inhibitory activity"}, {"measurement": "helicase activity of NSP13 in gel-based DNA unwinding assay", "setting": "[2]", "value": "slightly weak inhibitory effect than PUG"}, {"measurement": "NSP13/DNA complex formation (EMSA)", "setting": "[6]", "value": "reduced the complex formation in a concentration-dependent manner"}]}
{"compound": "CC(C)c1cc2c(c(O)c1O)[C@@]13CCCC(C)(C)[C@@H]1[C@H](OC3=O)[C@H]2O", "note": "[Rosmanol]", "values": [{"measurement": "IC50", "setting": "[1]; [8]", "value": 8930, "unit": "nM"}]}
{"compound": "O=c1oc2c(O)c(O)cc3c(=O)oc4c(O)c(O)cc1c4c23", "note": "[EA, ellagic acid]", "values": [{"measurement": "IC50", "setting": "[1]; IC50, DNA unwinding activity of NSP13, text", "value": "~2800", "unit": "nM"}, {"measurement": "NSP13 helicase inhibition relative to PUG", "setting": "[1]", "value": "about six times weaker"}, {"measurement": "inhibition of ATP hydrolysis by NSP13", "setting": "[4]; 10 μM ATP", "value": "much weaker inhibition"}, {"measurement": "NSP13/DNA complex formation (EMSA)", "setting": "[6]", "value": "reduced the complex formation in a concentration-dependent manner; also recorded: much weaker inhibition"}]}
{"compound": "Bismuth subsalicylat [reference compound]", "values": [{"measurement": "inhibitory activity against NSP13, confirmation screen", "setting": "[1]; 20 µM", "value": "more than 70%"}]}
